We go through 20 compounds from patent US10654834B2 (Venenum Biodesign, LLC, priority 2016, dated 2020).

The target of one series is T1, mouse TGR5 receptor (Mus musculus, UniProt Q80SS6).
T1 construct: host or cells: HEK293-EBNA (293 c18, ATCC CRL10852)
T1 sequence (Q80SS6 1-329): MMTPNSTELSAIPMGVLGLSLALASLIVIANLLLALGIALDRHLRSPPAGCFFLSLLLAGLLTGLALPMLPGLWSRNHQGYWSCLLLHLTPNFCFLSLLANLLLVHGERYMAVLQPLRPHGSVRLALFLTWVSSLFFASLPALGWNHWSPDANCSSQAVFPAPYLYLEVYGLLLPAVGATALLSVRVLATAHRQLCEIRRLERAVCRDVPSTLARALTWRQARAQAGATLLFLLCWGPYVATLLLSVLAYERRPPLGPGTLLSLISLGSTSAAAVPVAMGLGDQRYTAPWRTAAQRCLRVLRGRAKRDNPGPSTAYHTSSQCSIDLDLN
Put plainly: Mouse TGR5 HTRF cAMP production assay (HEK293-EBNA cells, Cisbio cAMP HiRange kit). The class given is cell-based. The note with it: HEK293-EBNA cells overexpressing mouse TGR5, HTRF cAMP assay. In short, it runs like this: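 cAMP accumulation was read by competitive HTRF after 1 h room-temperature compound treatment, with a further 1 h conjugate incubation. Cells were mouse TGR5-overexpressing HEK293-EBNA in serum-free DMEM plus 500 μM IBMX. Compounds ran as 12-point half-log series in duplicate, and EC50 values were reported.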
(In general: TR-FRET usually uses a lanthanide donor and a delayed reading to cut background.)

Series [1] in a line: Pharmacokinetic profile in mice after oral gavage. The class given is in vivo, mouse. The conditions noted are these: mouse; fasted male Hilltop mice, 10 mg/kg oral gavage, plasma; read-out: Cmax. The method, boiled down:
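Plasma exposure (Cmax, AUC) by non-compartmental analysis of LC-MS/MS data, orbital blood taken at 0, 0.25, 0.5, 1, 2 and 4 h, each value averaging three mice. Dosing: 10 mg/kg oral gavage to overnight-fasted male Hilltop mice (8 weeks), vehicle PEG400/CMC/Tween-80.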

What is called EC50 is the midpoint of the concentration-response curve. A lower EC50 goes with greater potency. One may read the Cmax as the peak of the concentration-time curve. In turn, `N#Cc1ccc(CCNC(=O)[C@@H]2CCCN2c2cc(N3CCC(CCCC(=O)O)CC3)cc(C(F)(F)F)n2)cc1` [Compound 197, (S)-4-(1-(2-(2-((4-cyanophenethyl)carbamoyl)pyrrolidin-1-yl)-6-(trifluoromethyl)pyridin-4-yl)piperidin-4-yl)butanoic acid] showed an EC50 on mouse TGR5 receptor of less than 0.1 µM. Besides, the highest concentration (Cmax) in series [1] is 143 ng/mL.

On mouse TGR5 receptor, `N#Cc1ccc(CCNC(=O)[C@@H]2CCN2c2cc(N3CCC(CCNC(=O)NCCOCCNC(=O)CS(=O)(=O)O)CC3)nc(C(F)(F)F)n2)cc1` [Compound 356, (S)-1-(1-(6-(2-((4-cyanophenethyl)carbamoyl)azetidin-1-yl)-2-(trifluoromethyl)pyrimidin-4-yl)piperidin-4-yl)-4,12-dioxo-8-oxa-3,5,11-triazatridecane-13-sulfonic acid] registered an EC50 of less than 0.1 µM. In series [1], the Cmax turned out to be 8.4 ng/mL.

`O=C(CCCC1CCN(c2cc(N3CCC[C@H]3C(=O)NCCc3ccc(C(F)(F)F)cc3)nc(C(F)(F)F)n2)CC1)NCCS(=O)(=O)O` [Compound 58, (S)-2-(4-(1-(2-(trifluoromethyl)-6-(2-((4-(trifluoromethyl)phenethyl)-carbamoyl)-pyrrolidin-1-yl)-pyrimidin-4-yl)piperidin-4-yl)butanamido)ethanesulfonic acid] showed an EC50 at mouse TGR5 receptor of less than 0.1 µM. Also, in series [1], the highest concentration (Cmax) was 29 ng/mL.

Consider `N#Cc1ccc(CCNC(=O)[C@@H]2CCCN2c2cc(N3CCC(CCC(=O)NCCS(=O)(=O)O)CC3)nc(C(F)(F)F)n2)cc1` [Compound 56, (S)-2-(3-(1-(6-(2-((4-cyanophenethyl)carbamoyl)pyrrolidin-1-yl)-2-(trifluoromethyl)pyrimidin-4-yl)piperidin-4-yl)propanamido)ethanesulfonic acid], for which, on mouse TGR5 receptor, the 50% effective concentration (EC50) is less than 0.1 µM. In addition, the Cmax in series [1] worked out at 14 ng/mL.

`N#Cc1ccc(CCNC(=O)[C@@H]2CCN2c2cc(N3CCC(CCNC(=N)N)CC3)nc(C(F)(F)F)n2)cc1` [Compound 285, (S)-N-(4-cyanophenethyl)-1-(6-(4-(2-guanidinoethyl)piperidin-1-yl)-2-(trifluoromethyl)pyrimidin-4-yl)azetidine-2-carboxamide] gave an EC50 at mouse TGR5 receptor of less than 0.1 µM. Also, in series [1], the Cmax turned out to be 0.9 ng/mL.

In the case of `N#Cc1ccc(CCNC(=O)[C@@H]2CCCN2c2cc(N3CCC(CCNS(=O)(=O)CCNC(=O)[C@@H](N)CS(=O)(=O)O)CC3)nc(C(F)(F)F)n2)cc1` [Compound 125, (R)-2-amino-3-((2-(N-(2-(1-(6-((S)-2-((4-cyanophenethyl)carbamoyl)-pyrrolidin-1-yl)-2-(trifluoromethyl)-pyrimidin-4-yl)piperidin-4-yl)ethyl)sulfamoyl)ethyl)amino)-3-oxopropane-1-sulfonic acid], the EC50 at mouse TGR5 receptor was less than 0.1 µM. The peak concentration (Cmax) in series [1] amounted to 0.14 ng/mL.

Regarding `N#Cc1ccc(CCNC(=O)[C@@H]2CCCN2c2cc(N3CCC(CCCC(=O)NCC(=O)O)CC3)nc(C(F)(F)F)n2)cc1` [Compound 103, (S)-2-(4-(1-(6-(2-((4-cyanophenethyl)carbamoyl)pyrrolidin-1-yl)-2-(trifluoromethyl)pyrimidin-4-yl)piperidin-4-yl)butanamido)acetic acid], on mouse TGR5 receptor, the EC50 is less than 0.1 µM. Moreover, the highest concentration (Cmax) in series [1] amounted to 9.3 ng/mL.

As to `N#Cc1ccc(CCNC(=O)[C@@H]2CCCN2c2cc(N3CCC(CCNC(=O)NCCC(=O)NCCS(=O)(=O)O)CC3)nc(C(F)(F)F)n2)cc1` [Compound 113, (S)-2-(3-(3-(2-(1-(6-(2-((4-cyanophenethyl)carbamoyl)pyrrolidin-1-yl)-2-(trifluromethyl)pyrimidin-4-yl)piperidin-4-yl)ethyl)ureido)-propanamido)-ethanesulfonic acid], the EC50 at mouse TGR5 receptor is less than 0.1 µM. Besides, in series [1], the Cmax was 0.13 ng/mL.

Turning to `N#Cc1ccc(CCNC(=O)[C@@H]2CCCN2c2cc(N3CCC(CCCC(=O)NCCS(=O)(=O)O)CC3)cc(C(F)(F)F)n2)cc1` [Compound 199, (S)-2-(4-(1-(2-(2-((4-cyanophenethyl)carbamoyl)pyrrolidin-1-yl)-6-(trifluoromethyl)pyridin-4-yl)piperidin-4-yl)butanamido)ethanesulfonic acid], the EC50 at mouse TGR5 receptor is less than 0.1 µM. Also, the maximum concentration (Cmax) in series [1] came to 1 ng/mL.

For the compound `N#C/N=C(\NCCC(=O)O)NCCC1CCN(c2cc(N3CC[C@H]3C(=O)NCCc3ccc(C#N)cc3)nc(C(F)(F)F)n2)CC1` [Compound 351, (S,Z)-3-(2-cyano-3-(2-(1-(6-(2-((4-cyanophenethyl)carbamoyl)azetidin-1-yl)-2-(trifluoromethyl)pyrimidin-4-yl)piperidin-4-yl)ethyl)guanidino)propanoic acid], the concentration giving a half-maximal response (EC50) at mouse TGR5 receptor was less than 0.1 µM. For the same compound, the peak concentration (Cmax) in series [1] amounted to 301 ng/mL.

The compound `N#Cc1ccc(CCNC(=O)[C@@H]2CCN2c2cc(N3CCC(CCCC(=O)NCCS(=O)(=O)O)CC3)nc(C(F)(F)F)n2)cc1` [Compound 249, (S)-2-(4-(1-(6-(2-((4-cyanophenethyl)carbamoyl)azetidin-1-yl)-2-(trifluoromethyl)pyrimidin-4-yl)piperidin-4-yl)butanamido)ethanesulfonic acid] returned an EC50 at mouse TGR5 receptor of less than 0.1 µM. In series [1], the maximum concentration (Cmax) was determined as 3.4 ng/mL.

In the case of `N#Cc1ccc(CCNC(=O)[C@@H]2CCN2c2cc(N3CCC(CCNC(=O)NCCC(=O)O)CC3)nc(C(F)(F)F)n2)cc1` [Compound 268, (S)-3-(3-(2-(1-(6-(2-((4-cyanophenethyl)carbamoyl)azetidin-1-yl)-2-(trifluoromethyl)pyrimidin-4-yl)piperidin-4-yl)ethyl)ureido)propanoic acid], on mouse TGR5 receptor, the EC50 was less than 0.1 µM. For the same compound, the Cmax in series [1] was determined as 7.7 ng/mL.

`N#Cc1ccc(CCNC(=O)[C@@H]2CCCN2c2cc(N3CCC(CCCNC(=O)NCCS(N)(=O)=O)CC3)nc(C(F)(F)F)n2)cc1` [Compound 120, (S)-N-(4-cyanophenethyl)-1-(6-(4-(3-(3-(2-sulfamoylethyl)ureido)propyl)piperidin-1-yl)-2-(trifluoromethyl)pyrimidin-4-yl)pyrrolidine-2-carboxamide]: on mouse TGR5 receptor, the EC50 was less than 0.1 µM. In addition, in series [1], the Cmax is 2.6 ng/mL.

Consider `N#Cc1ccc(CCNC(=O)[C@@H]2CCCN2c2cc(N3CCC(CCCC(=O)NCCS(=O)(=O)O)CC3)nc(C(F)(F)F)n2)cc1` [Compound 61, (S)-2-(4-(1-(6-(2-((4-cyanophenethyl)carbamoyl)pyrrolidin-1-yl)-2-(trifluoromethyl)pyrimidin-4-yl)-piperidin-4-yl)butanamido)ethanesulfonic acid], for which the concentration giving a half-maximal response (EC50) at mouse TGR5 receptor was less than 0.1 µM. In addition, the peak concentration (Cmax) in series [1] was 3.3 ng/mL.

In the case of `O=C(CCC1CCN(c2cc(N3CC[C@H]3C(=O)NCCc3ccc(C(F)(F)F)cc3)nc(C(F)(F)F)n2)CC1)NCS(=O)(=O)O` [Compound 253, (S)-(3-(1-(2-(trifluoromethyl)-6-(2-((4-(trifluoromethyl)phenethyl)-carbamoyl)azetidin-1-yl)pyrimidin-4-yl)piperidin-4-yl)propanamido)-methanesulfonic acid], the EC50 at mouse TGR5 receptor is less than 0.1 µM. Moreover, the Cmax in series [1] turned out to be 48 ng/mL.

As for `N#Cc1ccc(CCNC(=O)[C@@H]2CCCN2c2cc(N3CCC(CCNS(=O)(=O)CCNC(=N)N)CC3)nc(C(F)(F)F)n2)cc1` [Compound 130, (S)-N-(4-cyanophenethyl)-1-(6-(4-(2-(2-guanidinoethylsulfonamido)ethyl)piperidin-1-yl)-2-(trifluoromethyl)pyrimidin-4-yl)pyrrolidine-2-carboxamide], at mouse TGR5 receptor, the EC50 was less than 0.1 µM. In addition, the Cmax in series [1] stood at 2.8 ng/mL.

As for `N#Cc1ccc(CCNC(=O)[C@@H]2CCCN2c2cc(N3CCC(CCCC(=O)NCCS(N)(=O)=O)CC3)nc(C(F)(F)F)n2)cc1` [Compound 62, (S)-N-(4-cyanophenethyl)-1-(6-(4-(4-oxo-4-((2-sulfamoylethyl)amino)butyl)piperidin-1-yl)-2-(trifluoromethyl)pyrimidin-4-yl)pyrrolidine-2-carboxamide], the concentration giving a half-maximal response (EC50) on mouse TGR5 receptor was less than 0.1 µM. In addition, the Cmax in series [1] was 33 ng/mL.

`CS(=O)(=O)NCCOCCNC(=O)NCCC1CCN(c2cc(N3CC[C@H]3C(=O)NCCc3ccc(C#N)cc3)nc(C(F)(F)F)n2)CC1` [Compound 292, (S)-N-(4-cyanophenethyl)-1-(6-(4-(2-(3-(2-(2-(methylsulfonylamino)-ethoxy)ethyl)ureido)ethyl)piperidin-1-yl)-2-(trifluoromethyl)pyrimidin-4-yl)azetidine-2-carboxamide]: the 50% effective concentration (EC50) on mouse TGR5 receptor is less than 0.1 µM. Further, in series [1], the highest concentration (Cmax) worked out at 1.3 ng/mL.

Compound `N#Cc1ccc(CCNC(=O)[C@@H]2CCN2c2cc(N3CCC(CCCC(=O)O)CC3)nc(C(F)(F)F)n2)cc1` [Compound 231, (S)-4-(1-(6-(2-((4-cyanophenethyl)carbamoyl)azetidin-1-yl)-2-(trifluoromethyl)pyrimidin-4-yl)piperidin-4-yl)butanoic acid] showed an EC50 on mouse TGR5 receptor of less than 0.1 µM. The Cmax in series [1] was 28 ng/mL.

Turning to `N#Cc1ccc(CCNC(=O)[C@@H]2CCN2c2cc(N3CCC(CCNC(=O)NCCS(=O)(=O)O)CC3)nc(C(F)(F)F)n2)cc1` [Compound 271, (S)-2-(3-(2-(1-(6-(2-((4-cyanophenethyl)carbamoyl)azetidin-1-yl)-2-(trifluoromethyl)pyrimidin-4-yl)piperidin-4-yl)ethyl)ureido)-ethanesulfonic acid], the half-maximal effective concentration (EC50) on mouse TGR5 receptor was less than 0.1 µM. For the same compound, the Cmax in series [1] was less than 1 ng/mL.
